Where two headings read alike, the source gives them in different places.
How the values were obtained:
[1] = tested on: HCV genotype 1b (Con1) replicon in HUH-7 cells; test: HCV replicon luciferase reporter assay, genotype 1b; format: cell-based; conditions: Hepatitis C virus, Huh-7, 72 h, HCV genotype 1b replicon luciferase, 3 days incubation
Method in brief: (§1)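 Replicon inhibition for both genotypes was measured as Renilla luciferase signal (EnduRen, 7.5 μM final, 2 h) after 3-day, 37° C exposure of replicon-bearing HUH-7 cells in 4% FCS DMEM, 0.5% DMSO. The 1b construct carries S1179I; the 1a H77 construct carries P1496L and S2204I. Twenty-point, 3-fold dilutions were fitted four-parametrically for EC50, and CC50 was taken from multiplexed Cell Titer-Blue.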

[2] = tested on: HCV genotype 1a (H77 strain) replicon in HUH-7 cells; test: HCV replicon luciferase reporter assay, genotype 1a; format: cell-based; conditions: Hepatitis C virus, Huh-7, 72 h, HCV genotype 1a replicon luciferase, 3 days incubation
Method in brief: as §1

SMILES | EC50 ([1]; read-out: LE_1b (EC50)) | EC50 ([1]; read-out: LE_1b (EC50, range)) | EC50 ([2]; read-out: LE_1a (EC50)) | EC50 ([2]; read-out: LE_1a (EC50, range))
[2H]C([2H])([2H])C(OC(=O)N[C@@H]1C(=O)N2C[C@H](Oc3nccc4c5c(ccc34)N(C)CCO5)C[C@H]2C(=O)N[C@]2(C(=O)NS(=O)(=O)C3(C)CC3)C[C@H]2/C=C\CC[C@H](C)C[C@H]1C)(C([2H])([2H])[2H])C(F)(F)F [Compound 5297, 1,1,1,3,3,3-hexadeutero-2-(trifluoromethyl)propan-2-yl((2R,6S,7R,9S,13aS,14aR,16aS,Z)-7,9-dimethyl-2-((4-methyl-3,4-dihydro-2H-[1,4]oxazino[2,3-f]isoquinolin-7-yl)oxy)-14a-(((1-methylcyclopropyl)sulfonyl)carbamoyl)-5,16-dioxo-1,2,3,5,6,7,8,9,10,11,13a,14,14a,15,16,16a-hexadecahydrocyclopropa[e]pyrrolo[1,2-a][1,4]diazacyclopentadecin-6-yl)carbamate] | 3.16 nM | < 5.46 nM | 7.06 nM | 4.82 to 103 nM
[2H]C([2H])([2H])C(OC(=O)N[C@@H]1C(=O)N2C[C@H](Oc3nccc4c5c(ccc34)N(C)CCO5)C[C@H]2C(=O)N[C@]2(C(=O)NS(=O)(=O)C3(C)CC3)C[C@H]2/C=C\CC[C@@H](C)C[C@H]1C)(C([2H])([2H])[2H])C(F)(F)F [Compound 5298, 1,1,1,3,3,3-hexadeutero-2-(trifluoromethyl)propan-2-yl((2R,6S,7R,9R,13aS,14aR,16aS,Z)-7,9-dimethyl-2-((4-methyl-3,4-dihydro-2H-[1,4]oxazino[2,3-f]isoquinolin-7-yl)oxy)-14a-(((1-methylcyclopropyl)sulfonyl)carbamoyl)-5,16-dioxo-1,2,3,5,6,7,8,9,10,11,13a,14,14a,15,16,16a-hexadecahydrocyclopropa[e]pyrrolo[1,2-a][1,4]diazacyclopentadecin-6-yl)carbamate] |  | < 5.46 nM |  | < 5.46 nM
C[C@H]1CC/C=C\[C@@H]2C[C@@]2(C(=O)NS(=O)(=O)C2(C)CC2)NC(=O)[C@@H]2C[C@@H](Oc3nccc4c5c(ccc34)N(C)CCO5)CN2C(=O)[C@@H](NC(=O)O[C@@H]2C[C@@H]3C[C@@H]3C2)[C@H](C)C1 [Compound 5299, (1R,3r,5S)-bicyclo[3.1.0]hexan-3-yl((2R,6S,7R,9S,13aS,14aR,16aS,Z)-7,9-dimethyl-2-((4-methyl-3,4-dihydro-2H-[1,4]oxazino[2,3-f]isoquinolin-7-yl)oxy)-14a-(((1-methylcyclopropyl)sulfonyl)carbamoyl)-5,16-dioxo-1,2,3,5,6,7,8,9,10,11,13a,14,14a,15,16,16a-hexadecahydrocyclopropa[e]pyrrolo[1,2-a][1,4]diazacyclopentadecin-6-yl)carbamate] |  | < 5.46 nM |  | < 5.46 nM
C[C@@H]1CC/C=C\[C@@H]2C[C@@]2(C(=O)NS(=O)(=O)C2(C)CC2)NC(=O)[C@@H]2C[C@@H](Oc3nccc4c5c(ccc34)N(C)CCO5)CN2C(=O)[C@@H](NC(=O)O[C@@H]2C[C@@H]3C[C@@H]3C2)[C@H](C)C1 [Compound 5300, (1R,3r,5S)-bicyclo[3.1.0]hexan-3-yl((2R,6S,7R,9R,13aS,14aR,16aS,Z)-7,9-dimethyl-2-((4-methyl-3,4-dihydro-2H-[1,4]oxazino[2,3-f]isoquinolin-7-yl)oxy)-14a-(((1-methylcyclopropyl)sulfonyl)carbamoyl)-5,16-dioxo-1,2,3,5,6,7,8,9,10,11,13a,14,14a,15,16,16a-hexadecahydrocyclopropa[e]pyrrolo[1,2-a][1,4]diazacyclopentadecin-6-yl)carbamate] |  | < 5.46 nM |  | < 5.46 nM
C[C@H]1CC/C=C\[C@@H]2C[C@@]2(C(=O)NS(=O)(=O)C2(C)CC2)NC(=O)[C@@H]2C[C@@H](Oc3nccc4c5c(ccc34)N(C)CCO5)CN2C(=O)[C@@H](NC(=O)NC(C)(C)C)[C@H](C)C1 [Compound 5301, (2R,6S,7R,9S,13aS,14aR,16aS,Z)-6-(3-(tert-butyl)ureido)-7,9-dimethyl-2-((4-methyl-3,4-dihydro-2H-[1,4]oxazino[2,3-f]isoquinolin-7-yl)oxy)-N-((1-methylcyclopropyl)sulfonyl)-5,16-dioxo-1,2,3,5,6,7,8,9,10,11,13a,14,14a,15,16,16a-hexadecahydrocyclopropa[e]pyrrolo[1,2-a][1,4]diazacyclopentadecine-14a-carboxamide] |  | < 5.46 nM |  | 4.82 to 103 nM
C[C@@H]1CC/C=C\[C@@H]2C[C@@]2(C(=O)NS(=O)(=O)C2(C)CC2)NC(=O)[C@@H]2C[C@@H](Oc3nccc4c5c(ccc34)N(C)CCO5)CN2C(=O)[C@@H](NC(=O)NC(C)(C)C)[C@H](C)C1 [Compound 5302, (2R,6S,7R,9R,13aS,14aR,16aS,Z)-6-(3-(tert-butyl)ureido)-7,9-dimethyl-2-((4-methyl-3,4-dihydro-2H-[1,4]oxazino[2,3-f]isoquinolin-7-yl)oxy)-N-((1-methylcyclopropyl)sulfonyl)-5,16-dioxo-1,2,3,5,6,7,8,9,10,11,13a,14,14a,15,16,16a-hexadecahydrocyclopropa[e]pyrrolo[1,2-a][1,4]diazacyclopentadecine-14a-carboxamide] |  | < 5.46 nM |  | < 5.46 nM
C[C@H]1CC/C=C\[C@@H]2C[C@@]2(C(=O)NS(=O)(=O)C2(C)CC2)NC(=O)[C@@H]2C[C@@H](Oc3nccc4c5c(ccc34)N(C)CCO5)CN2C(=O)[C@@H](NC(=O)c2ccc(N(C)C)cc2)[C@H](C)C1 [Compound 5303, (2R,6S,7R,9S,13aS,14aR,16aS,Z)-6-(4-(dimethylamino)benzamido)-7,9-dimethyl-2-((4-methyl-3,4-dihydro-2H-[1,4]oxazino[2,3-f]isoquinolin-7-yl)oxy)-N-((1-methylcyclopropyl)sulfonyl)-5,16-dioxo-1,2,3,5,6,7,8,9,10,11,13a,14,14a,15,16,16a-hexadecahydrocyclopropa[e]pyrrolo[1,2-a][1,4]diazacyclopentadecine-14a-carboxamide] |  | < 5.46 nM |  | 4.82 to 103 nM
C[C@@H]1CC/C=C\[C@@H]2C[C@@]2(C(=O)NS(=O)(=O)C2(C)CC2)NC(=O)[C@@H]2C[C@@H](Oc3nccc4c5c(ccc34)N(C)CCO5)CN2C(=O)[C@@H](NC(=O)c2ccc(N(C)C)cc2)[C@H](C)C1 [Compound 5304, (2R,6S,7R,9R,13aS,14aR,16aS,Z)-6-(4-(dimethylamino)benzamido)-7,9-dimethyl-2-((4-methyl-3,4-dihydro-2H-[1,4]oxazino[2,3-f]isoquinolin-7-yl)oxy)-N-((1-methylcyclopropyl)sulfonyl)-5,16-dioxo-1,2,3,5,6,7,8,9,10,11,13a,14,14a,15,16,16a-hexadecahydrocyclopropa[e]pyrrolo[1,2-a][1,4]diazacyclopentadecine-14a-carboxamide] |  | < 5.46 nM |  | < 5.46 nM
C[C@H]1CC/C=C\[C@@H]2C[C@@]2(C(=O)NS(=O)(=O)C2(C)CC2)NC(=O)[C@@H]2C[C@@H](Oc3nccc4c5c(ccc34)N(C)CCO5)CN2C(=O)[C@@H](NC(=O)C(=O)N(C)C)[C@H](C)C1 [Compound 5305, N1-((2R,6S,7R,9S,13aS,14aR,16aS,Z)-7,9-dimethyl-2-((4-methyl-3,4-dihydro-2H-[1,4]oxazino[2,3-f]isoquinolin-7-yl)oxy)-14a-(((1-methylcyclopropyl)sulfonyl)carbamoyl)-5,16-dioxo-1,2,3,5,6,7,8,9,10,11,13a,14,14a,15,16,16a-hexadecahydrocyclopropa[e]pyrrolo[1,2-a][1,4]diazacyclopentadecin-6-yl)-N2,N2-dimethyloxalamide] |  | 4.82 to 103 nM |  | 4.82 to 103 nM
C[C@@H]1CC/C=C\[C@@H]2C[C@@]2(C(=O)NS(=O)(=O)C2(C)CC2)NC(=O)[C@@H]2C[C@@H](Oc3nccc4c5c(ccc34)N(C)CCO5)CN2C(=O)[C@@H](NC(=O)C(=O)N(C)C)[C@H](C)C1 [Compound 5306, N1-((2R,6S,7R,9R,13aS,14aR,16aS,Z)-7,9-dimethyl-2-((4-methyl-3,4-dihydro-2H-[1,4]oxazino[2,3-f]isoquinolin-7-yl)oxy)-14a-(((1-methylcyclopropyl)sulfonyl)carbamoyl)-5,16-dioxo-1,2,3,5,6,7,8,9,10,11,13a,14,14a,15,16,16a-hexadecahydrocyclopropa[e]pyrrolo[1,2-a][1,4]diazacyclopentadecin-6-yl)-N2,N2-dimethyloxalamide] | 2.45 nM | < 5.46 nM | 2.97 nM | < 5.46 nM
CC[C@@H]1C[C@@H](C)CC/C=C\[C@@H]2C[C@@]2(C(=O)NS(=O)(=O)C2CC2)NC(=O)[C@@H]2C[C@@H](Oc3nccc4c5c(ccc34)N(C)CCO5)CN2C(=O)[C@H]1NC(=O)OC(C)(C)C [Compound 5307, tert-butyl ((2R,6S,7R,9S,13aS,14aR,16aS,Z)-14a-((cyclopropylsulfonyl)carbamoyl)-7-ethyl-9-methyl-2-((4-methyl-3,4-dihydro-2H-[1,4]oxazino[2,3-f]isoquinolin-7-yl)oxy)-5,16-dioxo-1,2,3,5,6,7,8,9,10,11,13a,14,14a,15,16,16a-hexadecahydrocyclopropa[e]pyrrolo[1,2-a][1,4]diazacyclopentadecin-6-yl)carbamate] |  | < 5.46 nM |  | 4.82 to 103 nM
CC[C@@H]1C[C@H](C)CC/C=C\[C@@H]2C[C@@]2(C(=O)NS(=O)(=O)C2CC2)NC(=O)[C@@H]2C[C@@H](Oc3nccc4c5c(ccc34)N(C)CCO5)CN2C(=O)[C@H]1NC(=O)OC(C)(C)C [Compound 5308, tert-butyl ((2R,6S,7R,9R,13aS,14aR,16aS,Z)-14a-((cyclopropylsulfonyl)carbamoyl)-7-ethyl-9-methyl-2-((4-methyl-3,4-dihydro-2H-[1,4]oxazino[2,3-f]isoquinolin-7-yl)oxy)-5,16-dioxo-1,2,3,5,6,7,8,9,10,11,13a,14,14a,15,16,16a-hexadecahydrocyclopropa[e]pyrrolo[1,2-a][1,4]diazacyclopentadecin-6-yl)carbamate] |  | < 5.46 nM |  | < 5.46 nM

From patent US9499550B2 (BRISTOL-MYERS SQUIBB COMPANY, priority 2012, dated 2016)
